Results on 17 compounds are retold here after article PMC3688708 (PLoS ONE, 2013).

Structures can show the parent of a compound that is named as a salt. Where two headings read alike, the source gives them in different places.

Series [1] deals with T1, PA63-channel (Bacillus anthracis, UniProt P13423). The experiment in a line: biochemical. Type of series: binding.
Series [2] has as its target T1, PA63-channel. Description: biochemical. Type of series: binding. The source holds these as a separate data set.
The test system of the next series is J774A.1 macrophages. It counts as cell-based. The note with it: for amount of lysed cells (LF-induced cell lysis after acidic pulse): pH 5.
The test system of series [3] is J774A.1 cells. Type of series: cell-based.
The subject of series [4] is J774A.1 cells. The note with it: 100 µM.
The target of series [5] is T1, PA63-channel. The note with it: cited from earlier work.
For series [6], the target named is T1, PA63-channel. As to conditions: cited from earlier work. This is another data set of the same source.
The mark [7] stands for this setting: read-out: Half saturation constant KS, pH 6.

T1 sequence (P13423 197-764 limits assumed): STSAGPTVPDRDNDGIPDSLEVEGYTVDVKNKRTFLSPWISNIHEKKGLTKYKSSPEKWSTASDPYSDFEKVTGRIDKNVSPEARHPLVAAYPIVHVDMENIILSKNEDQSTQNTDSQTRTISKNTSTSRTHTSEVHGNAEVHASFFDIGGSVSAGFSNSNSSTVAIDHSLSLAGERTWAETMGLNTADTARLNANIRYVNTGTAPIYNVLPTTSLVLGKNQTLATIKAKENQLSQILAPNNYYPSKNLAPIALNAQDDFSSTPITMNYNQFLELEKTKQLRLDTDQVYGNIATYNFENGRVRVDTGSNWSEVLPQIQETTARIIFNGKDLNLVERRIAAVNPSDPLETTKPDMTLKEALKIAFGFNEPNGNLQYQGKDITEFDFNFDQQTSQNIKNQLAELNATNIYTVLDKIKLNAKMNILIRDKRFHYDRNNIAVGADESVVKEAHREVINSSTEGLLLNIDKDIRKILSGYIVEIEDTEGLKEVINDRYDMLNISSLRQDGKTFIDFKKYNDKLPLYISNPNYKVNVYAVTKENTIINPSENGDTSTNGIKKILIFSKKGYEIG

Regarding “1-(4-chlorophenyl)-2-(4-bromophenyl)imidazo[1,2-a]pyridinium tetrafluoroborate [HA1568]”, on PA63-channel [1], the “off-rate k-1” value was 260 s⁻¹ and the “on-rate constant k1” value worked out at 1.3e+08 M⁻¹ s⁻¹. Besides, on PA63-channel [1] (pH 6), the “K (stability constant from ratio k1/k-1)” value is 511,000 L/mol, the “k1 (on-rate constant)” value is on record as 1.3×10^8 L/(molxs) and the “k-1 (off-rate constant)” value was found to be 260 s⁻¹. The Kd at PA63-channel [1] (pH 6, read-out: KS) stood at 2 µM. Also, the “K*” value on PA63-channel [2] was 478,000 L/mol. The “Stability constant K” value at PA63-channel [2] (pH 6) is 478,000 L/mol. Besides, the Kd on PA63-channel [2] (pH 6, read-out: Half saturation constant KS) was found to be 2.7 µM. In the series on J774A.1 macrophages, the “viability of J774A.1 cells by MTS-assay after acidic shift with PA63/LF” value is given as “protective effect” and the “amount of lysed cells (LF-induced cell lysis after acidic pulse)” value (shortened to “amount of lysed cells”) is “significantly reduced”. For the same compound, in the series on J774A.1 cells [3], the “lethal toxin-treated cells that survived in the presence of the substance” value is recorded as “about 80%” and the “protection from lysis by PA63/LF in the medium” value (“protection from lysis by PA63/LF” for short) is listed as “protected”. Also, in the series with J774A.1 cells [4] (24 h), the “cell viability (MTS assay)” value is “no effect on cell viability”.

As to `O=[N+]([O-])c1cccc(-n2c(-c3ccc(Br)cc3)c[n+]3ccccc23)c1` (as salt: bromide) [HA1495, 1-(3-nitrophenyl)-2-(4-bromophenyl)imidazo[1,2-a]pyridinium bromide], the melting point (commonly the temperature of the solid-liquid transition) was 176 to 177 °C.

As to `CCN(CC)CCCC(C)Nc1ccnc2cc(Cl)ccc12` (stereo not shown) [Chloroquine], the “K*” value at PA63-channel [5] is 676,000 L/mol. The “Stability constant K” value at PA63-channel [5] (pH 6) was 676,000 L/mol. In addition, the Kd at PA63-channel [5] (setting [7]) is 1.5 µM. Moreover, on PA63-channel [5] (read-out: Half saturation constant Ks), the Kd was 1.43 µM. Further, on PA63-channel [6], the “K (stability constant from ratio k1/k-1)” value is 1,030,000 L/mol, the “k1 (on-rate constant)” value is recorded as 3.6×10^8 L/(molxs) and the “k-1 (off-rate constant)” value was 350 s⁻¹. Moreover, the Kd at PA63-channel [6] (read-out: KS) was 0.97 µM.

As to `O=[N+]([O-])c1ccc(-c2c[n+]3ccccc3n2-c2ccc(O)cc2)cc1` [HA1383, 1-(4-hydroxyphenyl)-2-(4-nitrophenyl)imidazo[1,2-a]pyridinium tetrafluoroborate], the melting point lay in the range of 171 to 173 °C. Besides, at PA63-channel [1], the Kd came out at 1.8 µM and the “off-rate k-1” value came out at 352 s⁻¹. Further, on PA63-channel [1] (pH 6), the “K (stability constant from ratio k1/k-1)” value is on record as 560,000 L/mol, the “k1 (on-rate constant)” value was 2.1×10^8 L/(molxs) and the “k-1 (off-rate constant)” value amounted to 370 s⁻¹. Moreover, on PA63-channel [2], the “K (Lineweaver-Burke plot)” value is 740,000 1/M and the “K*” value was 749,000 L/mol. This compound came in with a Kd on PA63-channel [2] (Half saturation constant KS) of 1.3 µM. Also, on PA63-channel [2] (Half saturation constant Ks), the Kd turned out to be 1.34 µM. Further, the “amount of lysed cells” value in the series with J774A.1 macrophages is given as “significantly reduced”. For the same compound, in the series with J774A.1 cells [3], the “protection from lysis by PA63/LF” value is given as “moderate inhibitory effect”. Moreover, the “cell viability (MTS assay)” value in the series with J774A.1 cells [4] (7 h) was “no effect on cell viability”. Besides, in the series with J774A.1 cells [4] (24 h), the “cell viability (MTS assay)” value was “slightly decreased”.

In turn, `O=[N+]([O-])c1cccc(-n2c(-c3ccc(Br)cc3)c[n+]3ccccc23)c1` [HA1495, 1-(3-nitrophenyl)-2-(4-bromophenyl)imidazo[1,2-a]pyridinium bromide] yielded a Kd on PA63-channel [2] (Half saturation constant KS) of 3.6 µM. The “Stability constant K” value on PA63-channel [2] (pH 6) was 274,000 L/mol. Besides, the “amount of lysed cells” value in the series with J774A.1 macrophages is recorded as “significantly reduced”. In the series with J774A.1 cells [3], the “protection from lysis by PA63/LF” value is “moderate inhibitory effect”. Also, the “cell viability (MTS assay)” value in the series with J774A.1 cells [4] (24 h) is listed as “no effect on cell viability”.

For the compound `O=c1[nH]c2cccc[n+]2c2ccccc12` [HA 47], the “Stability constant K” value at PA63-channel [2] (pH 6) is given as 500 L/mol. The Kd at PA63-channel [2] (setting [7]) amounted to 1990 µM.

Compound `Brc1ccc(-c2csc3cccc[n+]23)cc1` [HA 112] showed a Kd on PA63-channel [2] (Half saturation constant KS) of 57 µM. Further, the “Stability constant K” value on PA63-channel [2] (pH 6) is recorded as 18,500 L/mol.

As for `Clc1ccc(OCn2cc[n+]3ccccc23)c(Cl)c1` [HA 486], on PA63-channel [1], the Kd turned out to be 32 µM, the “off-rate k-1” value is 3,500 1/s and the “on-rate constant k1” value was 1.2e+08 M⁻¹ s⁻¹. Also, on PA63-channel [1] (pH 6), the “K (stability constant from ratio k1/k-1)” value is recorded as 34,000 L/mol, the “k1 (on-rate constant)” value was 1.2×10^8 L/(molxs) and the “k-1 (off-rate constant)” value is on record as 3,500 1/s. Moreover, the “K*” value on PA63-channel [2] is reported as 38,000 L/mol. For the same compound, the Kd on PA63-channel [2] (Half saturation constant KS) is 27 µM. In addition, the “Stability constant K” value on PA63-channel [2] (pH 6) is listed as 38,000 L/mol.

Consider `Clc1cc(Cl)c(-n2nnc3cccc[n+]32)c(Cl)c1` [HA 728], for which, at PA63-channel [2] (Half saturation constant KS), the Kd turned out to be 85 µM. Besides, the “Stability constant K” value on PA63-channel [2] (pH 6) is recorded as 11,800 L/mol.

Turning to `Clc1ccc(OCn2cn[n+]3ccccc23)c(Cl)c1` [HA 766], at PA63-channel [2] (Half saturation constant KS), the Kd stood at 36 µM. Further, the “Stability constant K” value at PA63-channel [2] (pH 6) is recorded as 29,400 L/mol.

`Cn1c(COc2ccc(Cl)cc2)n[n+]2ccccc12` [HA 1196] registered a Kd on PA63-channel [2] (Half saturation constant KS) of 260 µM. At PA63-channel [2] (pH 6), the “Stability constant K” value is listed as 3,800 L/mol.

With `COc1ccc([N+](=O)[O-])cc1-n1nnc2cccc[n+]21` [HA 1212], on PA63-channel [2] (pH 6), the “Stability constant K” value is recorded as 7,000 L/mol. Also, the Kd at PA63-channel [2] (setting [7]) was 150 µM.

In turn, `Clc1ccc(-n2nnc3ccc4ccccc4[n+]32)c(Cl)c1` [HA 1221] displayed a Kd on PA63-channel [2] (Half saturation constant KS) of 170 µM. In addition, the “Stability constant K” value at PA63-channel [2] (pH 6) was 6,000 L/mol.

Turning to `O=C(C[n+]1ccccc1Cl)c1ccc([N+](=O)[O-])cc1` [HA 1371], the Kd at PA63-channel [2] (Half saturation constant KS) turned out to be 310 µM. The “Stability constant K” value on PA63-channel [2] (pH 6) is 3,200 L/mol.

With `CCOC(=O)c1ccc(-n2c(-c3ccc(Br)cc3)c[n+]3cccc(O)c23)cc1` [HA 1504], the Kd on PA63-channel [2] (Half saturation constant KS) was 12 µM. Also, the “Stability constant K” value at PA63-channel [2] (pH 6) was 82,900 L/mol.

Take `O=c1c2ccccc2[n+]2ccccc2n1Cc1cccc2ccccc12` [HA 1882]: at PA63-channel [2] (Half saturation constant KS), the Kd amounted to 130 µM. At PA63-channel [2] (pH 6), the “Stability constant K” value is recorded as 7,900 L/mol.

For `COc1ccc(-n2c(=S)n(-c3ccc([N+](=O)[O-])cc3)c3cccc[n+]32)cc1` [HA 1885], the Kd on PA63-channel [2] (Half saturation constant KS) amounted to 110 µM. In addition, the “Stability constant K” value on PA63-channel [2] (pH 6) is given as 10,800 L/mol.
